What was measured:
Pyricularia oryzae = experiment: microbe, parasite or virus in culture; format: cell-based; settings: 168 h, read-out: control
Rhizoctonia solani = Rhizoctonia solani (rice sheath blight/potato black scurf) in vitro test, radial growth on Potato Dextrose Agar; format: cell-based; settings: 168 h, compared to the untreated check, radial growth after seven days, read-out: control
Alternaria solani = Alternaria solani (early blight of tomato/potato) in vitro test, radial growth on Potato Dextrose Agar; format: cell-based; settings: 168 h, compared to the untreated check, radial growth after seven days, read-out: control
Fusarium culmorum = Fusarium culmorum (foot rot of cereals) in vitro test, radial growth on Potato Dextrose Agar; format: cell-based; settings: 168 h, 25° C., seven days, read-out: control compared to the untreated check (radial growth)
Phakopsora pachyrhizi = Phakopsora pachyrhizi test in soybean (greenhouse, preventive activity, disease severity rating); format: in vivo; settings: preventive spray on soybean, compared to the untreated check
Outline: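 Greenhouse-raised young soybean plants sprayed with compound at stated rates, then inoculated one day later with 2.1×10^6 P. pachyrhizi spores and held at 25° C, 90% RH. Disease severity (0-100%) rated visually 3, 7, 10 and 15 days after application; % control calculated versus untreated plants.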

Colletotrichum capsici = Colletotrichum capsici (anthracnose) in vitro test, radial growth on Potato Dextrose Agar; settings: Colletotrichum truncatum, 168 h, read-out: control
Description: Compounds were dissolved in 0.3% DMSO and then added to Potato Dextrose Agar medium just prior to dispensing it into petri dishes. 5 mL medium with compound in the desired concentration was dispensed into 60 mm sterile petri-plates. After solidification, each plate was seeded with a 5 mm size mycelial disc taken form the periphery of an actively growing virulent culture plate. Plates were incubated in growth chambers at 25° C. temperature and 60% relative humidity for seven days and radial growth was measured.

Botrytis cinerea = Botrytis cinerea (gray mold) in vitro test, radial growth on Potato Dextrose Agar; format: cell-based; settings: 168 h, compared to the untreated check, radial growth after seven days, read-out: control
Corynespora cassicola = Corynespora cassicola (leaf spot of tomato) in vitro test, radial growth on Potato Dextrose Agar; format: cell-based; settings: 168 h, compared to the untreated check, radial growth after seven days, read-out: control

O=C(c1cccnc1)N1CC[C@H](Oc2ccc(-c3noc(C(F)(F)F)n3)cc2)C1 [Compound 12, (S)-pyridin-3-yl(3-(4-(5-(trifluoromethyl)-1,2,4-oxadiazol-3-yl)phenoxy)pyrrolidin-1-yl)methanone]
> 70%: inhibition of growth at 300 ppm (Pyricularia oryzae) | inhibition of growth at 300 ppm (Rhizoctonia solani) | inhibition of growth at 300 ppm (Alternaria solani) | inhibition of growth at 300 ppm (Fusarium culmorum) | pest or weed control at 500 ppm (Phakopsora pachyrhizi) | inhibition of growth at 300 ppm (Colletotrichum capsici)

Cc1ccc(CN2CC[C@H](Oc3ccc(-c4noc(C(F)(F)F)n4)cc3)C2)cc1 [Compound 163, (S)-3-(4-((1-(4-methylbenzyl)pyrrolidin-3-yl)oxy)phenyl)-5-(trifluoromethyl)-1,2,4-oxadiazole]
> 70%: inhibition of growth at 300 ppm (Pyricularia oryzae) | inhibition of growth at 300 ppm (Rhizoctonia solani) | inhibition of growth at 300 ppm (Botrytis cinerea) | inhibition of growth at 300 ppm (Alternaria solani) | inhibition of growth at 300 ppm (Corynespora cassicola)

CC(=O)N1CC[C@@H](Sc2ccc(-c3noc(C(F)(F)F)n3)cc2)C1 [Compound 165, (R)-1-(3-((4-(5-(trifluoromethyl)-1,2,4-oxadiazol-3-yl)phenyl)thio)pyrrolidin-1-yl)ethan-1-one]
> 70%: inhibition of growth at 300 ppm (Pyricularia oryzae) | inhibition of growth at 300 ppm (Rhizoctonia solani) | inhibition of growth at 300 ppm (Botrytis cinerea) | inhibition of growth at 300 ppm (Alternaria solani) | inhibition of growth at 300 ppm (Corynespora cassicola) | inhibition of growth at 300 ppm (Colletotrichum capsici)

CC(=O)N1CCC(Oc2ccc(-c3noc(C(F)(F)F)n3)cc2)CC1 [Compound 95, 1-(4-(4-(5-(trifluoromethyl)-1,2,4-oxadiazol-3-yl)phenoxy)piperidin-1-yl)ethan-1-one]
> 70%: inhibition of growth at 300 ppm (Pyricularia oryzae) | inhibition of growth at 300 ppm (Rhizoctonia solani) | inhibition of growth at 300 ppm (Botrytis cinerea) | inhibition of growth at 300 ppm (Alternaria solani) | inhibition of growth at 300 ppm (Fusarium culmorum) | inhibition of growth at 300 ppm (Corynespora cassicola) | inhibition of growth at 300 ppm (Colletotrichum capsici)

O=C(c1ccncc1)N1CC[C@H](Oc2ccc(-c3noc(C(F)(F)F)n3)cc2)C1 [Compound 13, (S)-pyridin-4-yl(3-(4-(5-(trifluoromethyl)-1,2,4-oxadiazol-3-yl)phenoxy)pyrrolidin-1-yl)methanone]
> 70%: inhibition of growth at 300 ppm (Pyricularia oryzae) | inhibition of growth at 300 ppm (Rhizoctonia solani) | inhibition of growth at 300 ppm (Botrytis cinerea) | inhibition of growth at 300 ppm (Alternaria solani) | inhibition of growth at 300 ppm (Fusarium culmorum) | pest or weed control at 500 ppm (Phakopsora pachyrhizi) | inhibition of growth at 300 ppm (Colletotrichum capsici)

FC(F)(F)c1nc(-c2ccc(O[C@H]3CCN(Cc4ccc(Cl)cc4)C3)cc2)no1 [Compound 180, (S)-3-(4-((1-(4-chlorobenzyl)pyrrolidin-3-yl)oxy)phenyl)-5-(trifluoromethyl)-1,2,4-oxadiazole]
> 70%: inhibition of growth at 300 ppm (Pyricularia oryzae) | inhibition of growth at 300 ppm (Botrytis cinerea) | inhibition of growth at 300 ppm (Alternaria solani) | inhibition of growth at 300 ppm (Corynespora cassicola) | inhibition of growth at 300 ppm (Colletotrichum capsici)

O=C(c1cocn1)N1CC[C@H](Oc2ccc(-c3noc(C(F)(F)F)n3)cn2)C1 [Compound 199, (S)-oxazol-4-yl(3-((5-(5-(trifluoromethyl)-1,2,4-oxadiazol-3-yl)pyridin-2-yl)oxy)pyrrolidin-1-yl)methanone]
> 70%: inhibition of growth at 300 ppm (Pyricularia oryzae) | inhibition of growth at 300 ppm (Alternaria solani) | inhibition of growth at 300 ppm (Fusarium culmorum) | inhibition of growth at 300 ppm (Colletotrichum capsici)

O=C(Cc1ccccn1)N1CC[C@H](Oc2ccc(-c3noc(C(F)(F)F)n3)cc2)C1 [Compound 55, (S)-2-(pyridin-2-yl)-1-(3-(4-(5-(trifluoromethyl)-1,2,4-oxadiazol-3-yl)phenoxy)pyrrolidin-1-yl)ethan-1-one]
> 70%: inhibition of growth at 300 ppm (Pyricularia oryzae) | inhibition of growth at 300 ppm (Rhizoctonia solani) | inhibition of growth at 300 ppm (Botrytis cinerea) | inhibition of growth at 300 ppm (Fusarium culmorum) | inhibition of growth at 300 ppm (Corynespora cassicola) | inhibition of growth at 300 ppm (Colletotrichum capsici)

Source: US20210392895A1, “NOVEL OXADIAZOLES” (PI INDUSTRIES LIMITED, priority 2018, published 2021)
